Assay results: US12185723B2, “Herbicidally active 3-phenylisoxazoline-5-carboxamides of s-containing cyclopentenylcarboxylic esters” (Bayer Aktiengesellschaft, priority 2019, dated 2025)

Assays:
Format in all cases: in vivo
[1] = test system: Setaria viridis; assay: Post-emergence herbicidal action against SETVI; conditions: visual rating about 3 weeks after treatment
Description: (§1) Post-Emergence Herbicidal Action Against Harmful Plants and Crop Plant Compatibility Seeds of monocotyledonous and dicotyledonous weeds and crop plants are placed in sandy loam in plastic or wood-fibre pots, covered with soil and cultivated in a greenhouse under controlled growth conditions. 2 to 3 weeks after sowing, the test plants are treated at the one-leaf stage. The compounds of the invention, formulated in the form of wettable powders (WP) or as emulsion concentrates (EC), are then sprayed onto the green parts of the plants as aqueous suspension or emulsion with addition of 0.5% additive at a water application rate of 600 l/ha (converted). After the test plants have been kept in the greenhouse under optimum growth conditions for about 3 weeks, the activity of the preparations is rated visually in comparison to untreated controls. For example, 100% activity=the plants have died, 0% activity=like control plants. [table]

[2] = test system: Polygonum convolvulus; assay: Post-emergence herbicidal action against POLCO; conditions: 20 g a.i./ha
Description: as §1

[3] = test system: Alopecurus myosuroides; assay: Post-emergence herbicidal action against ALOMY; conditions: 20 g a.i./ha, visual rating about 3 weeks after treatment
Description: as §1

[4] = test system: Amaranthus retroflexus; assay: Post-emergence herbicidal action against AMARE; conditions: 20 g a.i./ha
Description: as §1

[5] = test system: Lolium rigidum; assay: Post-emergence herbicidal action against LOLRI; conditions: 20 g a.i./ha, visual rating about 3 weeks after treatment
Description: as §1

[6] = test system: Avena fatua; assay: Post-emergence herbicidal action against AVEFA; conditions: 20 g a.i./ha, visual rating about 3 weeks after treatment
Description: as §1

[7] = test system: Echinochloa crus-galli; assay: Post-emergence herbicidal action against ECHCG; conditions: 20 g a.i./ha, visual rating about 3 weeks after treatment
Description: as §1

[8] = test system: Pharbitis purpurea; assay: Post-emergence herbicidal action against PHBPU; conditions: 20 g a.i./ha
Description: as §1

[9] = test system: Veronica persica; assay: Post-emergence herbicidal action against VERPE; conditions: 20 g a.i./ha
Description: as §1

[10] = test system: DIGSA; assay: Post-emergence herbicidal action against DIGSA; conditions: 20 g a.i./ha, visual rating about 3 weeks after treatment
Description: as §1, with “plants.” for “plants. [table]”

| Compound | Herbicidal action against [%] SETVI ([1]; 80 g a.i./ha) [%] | Herbicidal action against [%] POLCO [2] [%] | Herbicidal action against [%] ALOMY [3] [%] | Herbicidal action against [%] AMARE [4] [%] | Herbicidal action against [%] LOLRI [5] [%] | Herbicidal action against [%] AVEFA [6] [%] | Herbicidal action against [%] ECHCG [7] [%] | Herbicidal action against [%] PHBPU [8] [%] | Herbicidal action against [%] VERPE [9] [%] | Herbicidal action against [%] DIGSA [10] [%] | Herbicidal action against [%] SETVI ([1]; 20 g a.i./ha) [%] |
| --- | --- | --- | --- | --- | --- | --- | --- | --- | --- | --- | --- |
| CSCCOC(=O)C1C=CC(NC(=O)C2(C3CC3)CC(c3cc(F)cc(F)c3)=NO2)C1 (stereo not shown) [Example I-27] | 90 | – | – | – | – | – | – | – | – | – | – |
| CSCCOC(=O)C1C=CC(NC(=O)C2(CCl)CC(c3cc(F)cc(F)c3)=NO2)C1 (stereo not shown) [Example I-60] | – | 80 | 80 | 80 | 80 | 80 | 80 | – | – | – | – |
| CSCCOC(=O)C1C=CC(NC(=O)C2(C)CC(c3cc(C#N)cc(C#N)c3)=NO2)C1 (stereo not shown) [Example I-52] | – | 80 | 90 | – | – | 80 | – | 80 | 80 | – | – |
| CC(=O)CCSCCOC(=O)C1C=CC(NC(=O)C2(C)CC(c3cc(F)cc(F)c3)=NO2)C1 (stereo not shown) [Example I-15] | – | 80 | 90 | – | 80 | – | 80 | – | 80 | 80 | – |
| CC1(C(=O)NC2C=CC(C(=O)OCCSC3CCCCC3)C2)CC(c2cc(F)cc(F)c2)=NO1 (stereo not shown) [Example I-03] | – | 80 | 90 | – | – | – | 80 | 80 | – | 80 | 80 |
| CSCCOC(=O)C1C=CC(NC(=O)C2(CCl)CC(c3cc(F)cc(C#N)c3)=NO2)C1 (stereo not shown) [Example I-58] | – | 80 | 90 | – | – | 80 | 80 | – | 80 | – | – |
| CSCCOC(=O)C1C=CC(NC(=O)C2(CO)CC(c3cc(F)cc(F)c3)=NO2)C1 (stereo not shown) [Example I-70] | – | 80 | 100 | – | – | 80 | 90 | 80 | – | – | 90 |
| C[S+]([O-])CCOC(=O)C1C=CC(NC(=O)C2(C)CC(c3cccc(F)c3)=NO2)C1 (mixture of isomers) [Example I-61] | – | – | 80 | 80 | – | – | 80 | – | 80 | – | 80 |
| C=CC1(C(=O)NC2C=CC(C(=O)OCCSC)C2)CC(c2cc(C)cc(F)c2)=NO1 (stereo not shown) [Example I-56] | – | 80 | 80 | – | 80 | – | – | – | – | – | – |
| CSCCOC(=O)C1C=CC(NC(=O)C2(C)CC(c3cc(Cl)cc(C#N)c3)=NO2)C1 (stereo not shown) [Example I-72] | – | 80 | 90 | 80 | 90 | 80 | 80 | – | 80 | 90 | 90 |
